≈ marks a conversion by molar mass, not a printed value.

The assay deals with Mycobacterium tuberculosis. The experiment in a line: Antimycobacterial activity against Mycobacterium tuberculosis H37Rv by agar dilution method. Format: functional.
Regarding `O=C1c2ccccc2C(=O)C12[C@@H](c1ccc(Br)cc1)[C@@H]1CSCN1[C@@]21C(=O)Nc2ccc([N+](=O)[O-])cc21`, the minimum inhibitory concentration (MIC) (as a rule, the smallest concentration in the dilution series that meets the test's criterion for growth inhibition) worked out at 1.4 µM (≈ 0.807 µg/mL).

`O=C1c2ccccc2C(=O)C12[C@@H](c1cccc(Br)c1)[C@@H]1CSCN1[C@@]21C(=O)Nc2ccc([N+](=O)[O-])cc21`: the MIC was found to be 2.7 µM (≈ 1.56 µg/mL). This MIC lies about 1.9-fold higher than the previous one.

`O=C1c2ccccc2C(=O)C12[C@@H](c1ccccc1)[C@@H]1CSCN1[C@@]21C(=O)Nc2ccc(Cl)cc21` displayed an MIC of 25.7 µM (≈ 12.5 µg/mL).

With `O=C1c2ccccc2C(=O)C12[C@@H](c1ccccc1Br)[C@@H]1CSCN1[C@@]21C(=O)Nc2ccc(Cl)cc21`, the MIC was 2.8 µM (≈ 1.58 µg/mL).

As to `O=C1c2ccccc2C(=O)C12[C@@H](c1ccc(Cl)cc1)[C@@H]1CSCN1[C@@]21C(=O)Nc2ccc(Cl)cc21`, inhibition of growth (MIC) required 2.99 µM (≈ 1.56 µg/mL).

With `COc1ccc([C@H]2[C@@H]3CSCN3[C@@]3(C(=O)Nc4ccc([N+](=O)[O-])cc43)C23C(=O)c2ccccc2C3=O)cc1`, the MIC was determined as 11.9 µM (≈ 6.28 µg/mL).

In the case of `O=C1c2ccccc2C(=O)C12[C@@H](c1ccccc1Cl)[C@@H]1CSCN1[C@@]21C(=O)Nc2ccc(Cl)cc21`, the lowest concentration to inhibit growth (MIC) was 6 µM (≈ 3.13 µg/mL).

In the case of `O=C1c2ccccc2C(=O)C12[C@@H](c1ccccc1)[C@@H]1CSCN1[C@@]21C(=O)Nc2ccccc21`, the MIC was over 55.2 µM.

Molecule `O=C1c2ccccc2C(=O)C12[C@@H](c1cccc(F)c1)[C@@H]1CSCN1[C@@]21C(=O)Nc2ccc([N+](=O)[O-])cc21` displayed an MIC of 3 µM (≈ 1.55 µg/mL). This lies in the single-digit micromolar range.

For `CC[C@@H](CO)NCCN[C@@H](CC)CO` [ETHAMBUTOL], 7.6 µM (≈ 1.55 µg/mL) was the least that counted as inhibitory (MIC).

`CC(C)c1ccc([C@H]2[C@@H]3CSCN3[C@@]3(C(=O)Nc4ccccc43)C23C(=O)c2ccccc2C3=O)cc1` had an MIC of 25.3 µM (≈ 12.5 µg/mL).

For the molecule `O=C1c2ccccc2C(=O)C12[C@@H](c1ccc(Cl)cc1)[C@@H]1CSCN1[C@@]21C(=O)Nc2ccccc21`, the lowest concentration to inhibit growth (MIC) was 25.7 µM (≈ 12.5 µg/mL).

As for `COc1ccc([C@H]2[C@@H]3CSCN3[C@@]3(C(=O)Nc4ccccc43)C23C(=O)c2ccccc2C3=O)cc1OC`, the MIC was over 48.8 µM.

As to `O=C1c2ccccc2C(=O)C12[C@@H](c1ccc(Cl)cc1)[C@@H]1CSCN1[C@@]21C(=O)Nc2ccc([N+](=O)[O-])cc21`, the MIC worked out at 2.9 µM (≈ 1.54 µg/mL).

Regarding `O=C1c2ccccc2C(=O)C12[C@@H](c1ccccc1Cl)[C@@H]1CSCN1[C@@]21C(=O)Nc2ccc([N+](=O)[O-])cc21`, the MIC was 5.9 µM (≈ 3.14 µg/mL).

Molecule `COc1ccc([C@H]2[C@@H]3CSCN3[C@@]3(C(=O)Nc4ccccc43)C23C(=O)c2ccccc2C3=O)cc1` gave an MIC of over 51.8 µM.

Turning to `NNC(=O)c1ccncc1` [ISONIAZID], the MIC stood at 0.4 µM (≈ 0.0549 µg/mL).

For `O=C1Nc2ccc([N+](=O)[O-])cc2[C@]12N1CSC[C@H]1[C@H](c1cccc(Cl)c1Cl)[C@]21Cc2ccccc2C1=O`, it took 2.8 µM (≈ 1.55 µg/mL) to inhibit growth (MIC). Compared with the last molecule, the MIC is about 7-fold higher.

Consider `CC(C)c1ccc([C@H]2[C@@H]3CSCN3[C@@]3(C(=O)Nc4ccc(Cl)cc43)C23C(=O)c2ccccc2C3=O)cc1`, for which the MIC amounted to 11.8 µM (≈ 6.24 µg/mL).

`O=C1c2ccccc2C(=O)C12[C@@H](c1cccc([N+](=O)[O-])c1)[C@@H]1CSCN1[C@@]21C(=O)Nc2ccccc21` returned an MIC of 25.1 µM (≈ 12.5 µg/mL).

`COc1cc([C@H]2[C@@H]3CSCN3[C@@]3(C(=O)Nc4ccc([N+](=O)[O-])cc43)C23C(=O)c2ccccc2C3=O)cc(OC)c1OC` registered an MIC of 10.6 µM (≈ 6.23 µg/mL).

The molecule `Cc1ccccc1[C@H]1[C@@H]2CSCN2[C@@]2(C(=O)Nc3ccccc32)C12C(=O)c1ccccc1C2=O` had an MIC of 53.6 µM (≈ 25 µg/mL). This MIC is about 5.1-fold higher than that of the molecule before.

Consider `COc1cc([C@H]2[C@@H]3CSCN3[C@@]3(C(=O)Nc4ccc(Cl)cc43)C23C(=O)c2ccccc2C3=O)cc(OC)c1OC`, for which the lowest concentration to inhibit growth (MIC) was 21.7 µM (≈ 12.5 µg/mL).

Molecule `COc1ccc([C@H]2[C@@H]3CSCN3[C@@]3(C(=O)Nc4ccc(Cl)cc43)C23C(=O)c2ccccc2C3=O)cc1` had an MIC of 24.2 µM (≈ 12.5 µg/mL).

Molecule `CO[C@H]1/C=C/O[C@@]2(C)Oc3c(C)c(O)c4c(O)c(c(/C=N/N5CCN(C)CC5)c(O)c4c3C2=O)NC(=O)/C(C)=C\C=C\[C@H](C)[C@H](O)[C@@H](C)[C@@H](O)[C@@H](C)[C@H](OC(C)=O)[C@@H]1C` [RIFAMPIN] gave an MIC of 0.1 µM (≈ 0.0823 µg/mL).

As for `O=C1c2ccccc2C(=O)C12[C@@H](c1ccccc1Br)[C@@H]1CSCN1[C@@]21C(=O)Nc2ccccc21`, the minimal inhibitory concentration (MIC) amounted to 11.8 µM (≈ 6.27 µg/mL).

In turn, `COc1ccc([C@H]2[C@@H]3CSCN3[C@@]3(C(=O)Nc4ccc([N+](=O)[O-])cc43)C23C(=O)c2ccccc2C3=O)cc1OC` gave an MIC of 11.2 µM (≈ 6.24 µg/mL).

In the case of `O=C1c2ccccc2C(=O)C12[C@@H](c1ccccc1)[C@@H]1CSCN1[C@@]21C(=O)Nc2ccc([N+](=O)[O-])cc21`, the MIC is 12.6 µM (≈ 6.27 µg/mL).

On to `COc1ccc([C@H]2[C@@H]3CSCN3[C@@]3(C(=O)Nc4ccc(Cl)cc43)C23C(=O)c2ccccc2C3=O)cc1OC`, for which the MIC was 22.9 µM (≈ 12.5 µg/mL). This MIC lies about 1.8-fold higher than the previous one.

Regarding `O=C1c2ccccc2C(=O)C12[C@@H](c1ccccc1Cl)[C@@H]1CSCN1[C@@]21C(=O)Nc2ccccc21`, the MIC was 25.7 µM (≈ 12.5 µg/mL).

As for `COc1cc([C@H]2[C@@H]3CSCN3[C@@]3(C(=O)Nc4ccccc43)C23C(=O)c2ccccc2C3=O)cc(OC)c1OC`, the MIC was over 46.1 µM.

(Values after ChEMBL document CHEMBL1287784, “A facile 1,3-dipolar cycloaddition of azomethine ylides to 2-arylidene-1,3-indanediones: synthesis of dispiro-oxindolylpyrrolothiazoles and their antimycobacterial evaluation” (2010).)
